From patent publication US20250084095A1, “Aminopyrimidine Derivatives as Cyclin-Dependent Kinase Inhibitors” (Accutar Biotechnology Inc., priority 2023, published 2025)
Read-outs that look alike come from different tables or passages of the source.

Key:
[1] = test system: Phospho-Rb (Ser807/811) in MCF7 cells; experiment: Phospho-Rb expression inhibition in MCF7 cells quantified by in cell Western; format: cell-based, human; conditions: in cell Western
Procedure, shortened: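 MCF7 cells were seeded at 20,000/well, grown overnight, then treated 24 h at 37 °C with compound dilutions (0.1% DMSO from 1000× stocks). Fixed cells were co-stained for phospho-Rb Ser807/811 and total Rb. Near-infrared dual-channel in-cell Western imaging was the read-out.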

[2] = test system: 22RV1 cells; experiment: Cell growth inhibition of 22RV1 cells (CellTiter-Glo); format: cell-based; conditions: 5 days, CellTiter-Glo
Procedure, shortened: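 22RV1 cells were plated in RPMI1640 with FBS (20% in one version, 10% in the other) and dosed next day at various concentrations from DMSO stocks. After 5 days at 37 °C, viability was measured by CellTiter-Glo luminescence.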

[3] = Homo sapiens, MCF7, 24 h, 24 hours, read-out: MCF7 pRb IC50
[4] = Homo sapiens, 22Rv1, 120 h, read-out: 22RV1 Cell Growh GI50

| Structure (SMILES) | IC50 [1, 3] | GI50 [2, 4] | IC50 ([1]; 24 h incubation, read-out: MCF7, pRb (Ser807/811), IC50) | GI50 ([2]; read-out: 22RVI, GI50) |
| --- | --- | --- | --- | --- |
| Cc1c(-c2nc(N[C@@H]3C[C@H]4CO[C@H](O4)[C@H]3O)ncc2F)sc2c(Cl)c(C(C)(C)O)cnc12 [Compound 276, (1S,3R,4S,5R)-3-((4-(7-chloro-6-(2-hydroxypropan-2-yl)-3-methylthieno[3,2-b]pyridin-2-yl)-5-fluoropyrimidin-2-yl)amino)-6,8-dioxabicyclo[3.2.1]octan-4-ol] | ≤ 40 nM | 120 to 450 nM | – | – |
| CC(C)n1c(C(C)(C)O)nc2c(F)cc(-c3nc(N[C@@H]4CCOC[C@H]4O)ncc3Cl)cc21 [Reference Compound, PF-07220060, reference compound] | – | – | 65.2 nM | 153 nM |

Further lines, with some results ahead:

| IC50 [1, 3] | GI50 [2, 4] | Structure (SMILES) | IC50 ([1]; 24 h incubation, read-out: MCF7, pRb (Ser807/811), IC50) | GI50 ([2]; read-out: 22RVI, GI50) |
| --- | --- | --- | --- | --- |
| ≤ 40 nM | 120 to 450 nM | Cc1c(-c2nc(N[C@@H]3C[C@H]4CO[C@H](O4)[C@H]3O)ncc2Cl)sc2c(C)c(C(C)(C)O)cnc12 [Compound 277, (1S,3R,4S,5R)-3-((5-chloro-4-(6-(2-hydroxypropan-2-yl)-3,7-dimethylthieno[3,2-b]pyridin-2-yl)pyrimidin-2-yl)amino)-6,8-dioxabicyclo[3.2.1]octan-4-ol] | – | – |
| ≤ 40 nM | ≤ 120 nM | Cc1c(CN2CC[C@H](F)C2)n(C(C)C)c2cc(-c3nc(N[C@@H]4C[C@H]5CO[C@H](O5)[C@H]4O)ncc3F)ccc2c1=O [Compound 293, 7-(5-fluoro-2-(((1S,3R,4S,5R)-4-hydroxy-6,8-dioxabicyclo[3.2.1]octan-3-yl)amino)pyrimidin-4-yl)-2-(((S)-3-fluoropyrrolidin-1-yl)methyl)-1-isopropyl-3-methylquinolin-4(1H)-one] | – | – |
| 150 to 1000 nM | 450 to 3000 nM | CC(C)n1c(N2C(=O)OC[C@@H]2C)nc2c(F)cc(-c3nc(N[C@@H]4C[C@H]5CO[C@H](O5)[C@H]4O)ncc3Cl)cc21 [Compound 298, (S)-3-(6-(5-chloro-2-(((1S,3R,4S,5R)-4-hydroxy-6,8-dioxabicyclo[3.2.1]octan-3-yl)amino)pyrimidin-4-yl)-4-fluoro-1-isopropyl-1H-benzo[d]imidazol-2-yl)-4-methyloxazolidin-2-one] | – | – |
